Measured values as given in paper PMC11858205, “Radiolabeling and Preliminary In Vivo Evaluation of the Candidate CCR2 Targeting PET Radioligand [^11C]AZD2423” (Pharmaceuticals, 2025).
Values belong to the molecule of their own block, whether it stands above or below them.

Experiments:
CCR2 [1] = tested on: CCR2; set-up: method as in PMID 23523116, PMID 29913894; conditions: no method in this paper; read-out: CCR2 IC50 (affinity); cited from earlier work
[2] = set-up: method as in PMID 23523116, PMID 29913894; conditions: no method in this paper; cited from earlier work
[3] = set-up: method as in PMID 26116114; conditions: brain tissue in vitro; cited from earlier work
[4] = Stability of the radioligand in formulation; assay type: physicochemical; conditions: 9% ethanol in PBS, pH 7.4
Procedure: Carbon-11 labeled radioligands for in vivo PET imaging studies are typically produced in giga-becquerel quantities. As our goal was to develop a synthesis methodology suitable for routine radioligand production, the [^11C]AZD2423 synthesis process was fully automated to improve its reliability and reproducibility. The complete process was performed using a previously described [^11C]CO prototype synthesis apparatus (GEMS, Uppsala, Sweden), which included the initial formation of the crude [^11C]AZD2423 product, followed by its isolation by semipreparative high-performance liquid chromatography (HPLC), solid-phase extraction (SPE), and sterile filtration to yield the formulated product. Using these conditions, [^11C]AZD2423 was prepared with radioactivities exceeding 1 GBq and the radiochemical purity (RCP) was greater than 99%. The synthesis process took approximately 40 min, and the molar activity (Am) at the time of injection ranged from 15 to 20 GBq/μmol (405 to 540 Ci/mmol). […] The average radiochemical yield for the synthesis of [^11C]AZD2423 was 7.4 ± 0.6% (n = 4, relative to the [^11C]CO2 at the start of synthesis). The identity of the labeled compound was verified by co-injecting it with a reference standard.

CCR2 [5] = biological target: T1, CCR2 (Macaca mulatta, UniProt O18793); experiment: PET imaging in non-human primates at baseline and after pretreatment with AZD2423; assay type: in vivo, rhesus monkeys; conditions: for SUVpeak brain: iv; for Average VT parotid gland / Average VT thyroid gland: two-tissue compartment analysis
T1 construct: from tissue; host or cells: living rhesus monkeys: brain, thyroid gland, parotid gland, submandibular gland
T1 sequence (O18793 1-360): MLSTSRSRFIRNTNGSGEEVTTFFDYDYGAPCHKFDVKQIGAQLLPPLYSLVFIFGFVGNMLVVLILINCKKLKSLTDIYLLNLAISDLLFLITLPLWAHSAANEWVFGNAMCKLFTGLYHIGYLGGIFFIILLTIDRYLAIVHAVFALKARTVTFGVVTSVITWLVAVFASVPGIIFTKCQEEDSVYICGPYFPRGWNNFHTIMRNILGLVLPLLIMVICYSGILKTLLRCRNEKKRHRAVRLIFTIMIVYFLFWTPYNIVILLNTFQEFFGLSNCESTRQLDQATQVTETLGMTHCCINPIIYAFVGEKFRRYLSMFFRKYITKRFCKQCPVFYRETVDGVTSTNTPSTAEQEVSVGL
Procedure: To evaluate the brain exposure and regional distribution of [^11C]AZD2423 in non-human primate (NHP) brains, PET imaging studies were carried out. Thus, two 123 min dynamic brain PET measurements were performed at baseline and after pretreatment with unlabeled AZD2423 (3 mg/kg), respectively.
PET experiments were conducted on two anesthetized healthy rhesus monkeys weighing 5.3 and 4.7 kg. The study received approval from the Stockholm Animal Research Ethical Committee (Dnr. N452/11) and is comprehensively described in Dahl et al.. Anesthesia was induced via an intramuscular injection of ketamine hydrochloride (approximately 10 mg/kg, Ketalar, Pfizer AB, Stockholm, Sweden) and maintained with a mixture of sevoflurane (2–8%, Abbott Scandinavia AB, Solna, Sweden), oxygen (around 40%), and medical air following endotracheal intubation. The anesthesia level was continuously monitored during the experiment. The head was stabilized using a fixation device, and the body temperature was regulated with a Bair Hugger model 505 (Arizant Healthcare, St. Paul, MN, USA), with continuous monitoring via an esophageal thermometer. ECG, heart rate, blood pressure, respiratory rate, and oxygen saturation were all continuously monitored throughout the experiments.
Two PET measurements were performed on the same experimental day in each of the two monkeys. Baseline PET measurements were conducted using [^11C]AZD2423 with doses of 164 MBq and 157 MBq. A pretreatment PET measurement was also performed, during which an infusion of unlabeled AZD2423 (3.0 mg/kg) occurred over 10 min, starting 30 min before the injection of [^11C]AZD2423 (90 MBq and 158 MBq). In each PET experiment, the radioligand was administered as an intravenous bolus injection over 5 s, coinciding with the start of PET data acquisition. Radioactivity in the brain was continuously measured for 123 min using the high-resolution research tomograph (HRRT; Siemens Molecular Imaging, Knoxville, TN, USA), following a preprogrammed sequence of 34 frames. Arterial blood samples were collected at specified time points (4, 15, 30, 45, and 90 min) and analyzed for radioactivity in blood and plasma, as well as for the presence of the remaining parent compound, [^11C]AZD2423.
The Regions of Interest (ROIs) were delineated manually on MRI images of each NHP for the whole brain, thyroid gland, parotid gland, and submandibular gland. The summed PET images of the entire duration were co-registered with the MRI image of the individual NHP. After applying the co-registration parameters to the dynamic PET data, time–activity curves were generated for all ROIs for each PET measurement. The average SUV was calculated for each ROI. Target occupancy was estimated using the volume of distribution (VT) calculated by a two-tissue compartment model (2TC) with metabolite-corrected plasma radioactivity.

[6] = Radiometabolite analysis in arterial plasma; assay type: in vivo, rhesus monkeys
Procedure: To measure parent radioligand and radiometabolites in plasma, discrete arterial blood samples were drawn at five time points after the injection of [^11C]AZD2423. The radioligand was metabolized rather slowly (Figure 5). At 10 min after injection, approximately 80% of the radioactivity in plasma represented parent radioligand, decreasing to approximately 60% at 90 min. Most radiometabolites detected in plasma eluted with a retention time (tR) of 2.1–2.7 min and were thus less lipophilic than [^11C]AZD2423 (tR = 3.0 min). However, one metabolite with a longer retention time (tR = 3.5 min) was formed (see Supporting Information). These metabolites were not identified and further work would be required to fully characterize these unknown radiometabolites. […]
Two PET measurements were performed on the same experimental day in each of the two monkeys. […] Radioactivity in the brain was continuously measured for 123 min using the high-resolution research tomograph (HRRT; Siemens Molecular Imaging, Knoxville, TN, USA), following a preprogrammed sequence of 34 frames. Arterial blood samples were collected at specified time points (4, 15, 30, 45, and 90 min) and analyzed for radioactivity in blood and plasma, as well as for the presence of the remaining parent compound, [^11C]AZD2423.
Method description and representative radioactivity HPLC trace for radiometabolite analysis. […]

CCR1 = tested on: CCR1; set-up: method as in PMID 23523116, PMID 29913894; conditions: no method in this paper; cited from earlier work
CCR5 = tested on: CCR5; set-up: method as in PMID 23523116, PMID 29913894; conditions: no method in this paper; cited from earlier work
Other GPCR = tested on: Other GPCR; set-up: method as in PMID 23523116, PMID 29913894; conditions: no method in this paper; cited from earlier work
CCR2 [7] = tested on: CCR2; set-up: method as in PMID 33205603; conditions: cited from earlier work
[8] = pretreatment AZD2423 3 mg/kg relative to baseline
[9] = pretreatment AZD2423 3.0 mg/kg relative to baseline
[10] = pretreatment AZD2423 3 mg/kg, n = 2

SMILES: CC(C)(C)N1CCNC(C(=O)N2CCN(C(=O)Nc3ccc(Cl)c(F)c3)CC2)C1 (stereo not drawn) [AZD2423]
IC50 (CCR2 [1]): 2.6 nM
LogD [2]: 1.85
Fu (brain) / brain slice distribution [3]: 0.045

stability in formulation [4]: up to 60 min
SUVpeak brain (CCR2 [5]; NHP, after pretreatment with unlabeled AZD2423 3 mg/kg, n = 2): 0.4
SUVpeak brain (CCR2 [5]; NHP, baseline, n = 2): 0.4
SUVpeak parotid gland (CCR2 [5]; NHP, baseline, n = 2): 3.4
SUVpeak submandibular gland (CCR2 [5]; NHP, baseline, n = 2): 4.4
SUVpeak thyroid gland (CCR2 [5]; NHP, baseline, n = 2): 3.3
Average VT parotid gland (CCR2 [5]; baseline, n = 2): 111.1
Average VT thyroid gland (CCR2 [5]; baseline, n = 2): 53.1
Percentage decrease of VT parotid gland (CCR2 [5]; [8]): 62.6%
Percentage decrease of VT thyroid gland (CCR2 [5]; [8]): 63.4%
Percentage reduction of binding in the parotid gland (AUC ratio) (CCR2 [5]; [9]): 51.2%
Percentage reduction of binding in the submandibular gland (AUC ratio) (CCR2 [5]; [9]): 49%
Average VT parotid gland (CCR2 [5]; [10]): 41.6
Average VT thyroid gland (CCR2 [5]; [10]): 19.4
Parent radioligand, share of radioactivity in plasma ([6]; 10 min after iv injection): approximately 80%
Parent radioligand, share of radioactivity in plasma ([6]; 90 min after iv injection): approximately 60%
SMILES: CC(C)(C)N1CCNC(C(=O)N2CCN([11C](=O)Nc3ccc(Cl)c(F)c3)CC2)C1 (stereo not drawn) [[^11C]AZD2423]
IC50 (CCR2 [1]): 2.6 nM
IC50 (CCR1): > 10 µM
IC50 (CCR5): > 510 nM
Selectivity over other GPCR (Other GPCR): > 500 fold
LogD [2]: 1.85
pKa [2]: 7.9
Fu (brain) / brain slice distribution [3]: 0.045

SMILES: CN(CCc1ccc(NC(=O)C2=Cc3cc(-c4ccc(OCCCCC[18F])cc4)ccc3CCC2)cc1)C1CCOCC1 [[^18F]6b]
in vitro affinity to CCR2 (CCR2 [7]): 14 nM
